Results from PubChem BioAssay (NCI).
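A five-concentration, 48-hour dose response in 96-well plates underlies each endpoint, interpolated linearly between surrounding concentrations. GI50 marks 50% less growth. At the TGI there is no net growth.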

Assays:
Assay in all cases: NCI tumour cell line growth inhibition, 48 h
SF-539 CNS = tested on: SF-539 CNS
U251 CNS = tested on: U251 CNS
HCT-15 colon = tested on: HCT-15 colon
HL-60(TB) leukemia = tested on: HL-60(TB) leukemia
HOP-62 NSCLC = tested on: HOP-62 NSCLC
MDA-MB-231 breast = tested on: MDA-MB-231 breast
SK-MEL-28 melanoma = tested on: SK-MEL-28 melanoma
UACC-257 melanoma = tested on: UACC-257 melanoma
SNB-75 CNS = tested on: SNB-75 CNS
HS 578T breast = tested on: HS 578T breast
MALME-3M melanoma = tested on: MALME-3M melanoma
OVCAR-5 ovarian = tested on: OVCAR-5 ovarian
HT29 colon = tested on: HT29 colon
RXF 393 renal = tested on: RXF 393 renal
SW-620 colon = tested on: SW-620 colon
HOP-92 NSCLC = tested on: HOP-92 NSCLC
KM12 colon = tested on: KM12 colon
SNB-19 CNS = tested on: SNB-19 CNS
A498 renal = tested on: A498 renal
M14 melanoma = tested on: M14 melanoma
SF-295 CNS = tested on: SF-295 CNS
DU-145 prostate = tested on: DU-145 prostate
NCI-H522 lung = tested on: NCI-H522 lung
SK-OV-3 ovarian = tested on: SK-OV-3 ovarian
SK-MEL-2 melanoma = tested on: SK-MEL-2 melanoma
UACC-62 melanoma = tested on: UACC-62 melanoma
PC-3 prostate = tested on: PC-3 prostate
HCT-116 colon = tested on: HCT-116 colon
K-562 leukemia = tested on: K-562 leukemia
LOX IMVI melanoma = tested on: LOX IMVI melanoma
NCI-H460 lung = tested on: NCI-H460 lung
EKVX NSCLC = tested on: EKVX NSCLC
MOLT-4 leukemia = tested on: MOLT-4 leukemia
OVCAR-4 ovarian = tested on: OVCAR-4 ovarian
T-47D breast = tested on: T-47D breast
SF-268 CNS = tested on: SF-268 CNS
OVCAR-8 ovarian = tested on: OVCAR-8 ovarian
NCI/ADR-RES ovarian = tested on: NCI/ADR-RES ovarian
BT-549 breast = tested on: BT-549 breast
COLO 205 colon = tested on: COLO 205 colon
TK-10 renal = tested on: TK-10 renal
ACHN renal = tested on: ACHN renal
OVCAR-3 ovarian = tested on: OVCAR-3 ovarian
CAKI-1 renal = tested on: CAKI-1 renal
HCC-2998 colon = tested on: HCC-2998 colon
UO-31 renal = tested on: UO-31 renal
SN12C renal = tested on: SN12C renal
CCRF-CEM leukemia = tested on: CCRF-CEM leukemia
A549 NSCLC = tested on: A549 NSCLC
786-0 renal = tested on: 786-0 renal
MDA-MB-435 = tested on: MDA-MB-435
RPMI-8226 leukemia = tested on: RPMI-8226 leukemia
IGROV1 ovarian = tested on: IGROV1 ovarian
SK-MEL-5 melanoma = tested on: SK-MEL-5 melanoma

## Cc1cc2ncc(-c3cc4ccccc4c(N4CCN(C)CC4)n3)nc2cc1C
SF-539 CNS
  GI50: 1.87 µM
  TGI: 3.98 µM
U251 CNS
  GI50: 2.11 µM
  TGI: 4.91 µM
HCT-15 colon
  GI50: 1.82 µM
  TGI: 3.6 µM
HL-60(TB) leukemia
  GI50: 1.55 µM
  TGI: 3.56 µM
HOP-62 NSCLC
  GI50: 21.2 µM
  TGI: 79.5 µM
MDA-MB-231 breast
  GI50: 2.98 µM
  TGI: 10.3 µM
SK-MEL-28 melanoma
  GI50: 1.74 µM
  TGI: 3.19 µM
UACC-257 melanoma
  GI50: 12.8 µM
  TGI: 26.4 µM
SNB-75 CNS
  GI50: 11 µM
  TGI: 24 µM
HS 578T breast
  GI50: 12.7 µM
  TGI: 39.2 µM
MALME-3M melanoma
  GI50: 1.75 µM
  TGI: 3.42 µM
OVCAR-5 ovarian
  GI50: 8.87 µM
  TGI: 49.2 µM
HT29 colon
  GI50: 1.63 µM
  TGI: 3.29 µM
RXF 393 renal
  GI50: 2.01 µM
  TGI: 4.8 µM
SW-620 colon
  GI50: 1.85 µM
  TGI: 3.41 µM
HOP-92 NSCLC
  GI50: 2.42 µM
  TGI: 15.9 µM
KM12 colon
  GI50: 2.34 µM
  TGI: 5.47 µM
SNB-19 CNS
  GI50: 20.2 µM
  TGI: 89.8 µM
A498 renal
  GI50: 16.1 µM
  TGI: 31.6 µM
M14 melanoma
  GI50: 1.75 µM
  TGI: 3.21 µM
SF-295 CNS
  GI50: 14.2 µM
  TGI: 31.6 µM
DU-145 prostate
  GI50: 6.53 µM
  TGI: > 100 µM
NCI-H522 lung
  GI50: 11.6 µM
  TGI: 28.9 µM
SK-OV-3 ovarian
  GI50: 36.6 µM
  TGI: > 100 µM
SK-MEL-2 melanoma
  GI50: 16 µM
  TGI: 31.2 µM
UACC-62 melanoma
  GI50: 1.89 µM
  TGI: 3.89 µM
PC-3 prostate
  GI50: 5.37 µM
  TGI: > 100 µM
HCT-116 colon
  GI50: 1.67 µM
  TGI: 3.09 µM
K-562 leukemia
  GI50: 1.82 µM
  TGI: 3.57 µM
LOX IMVI melanoma
  GI50: 1.81 µM
  TGI: 3.34 µM
NCI-H460 lung
  GI50: 1.87 µM
  TGI: 3.45 µM
EKVX NSCLC
  GI50: 33.7 µM
  TGI: > 100 µM
MOLT-4 leukemia
  GI50: 2.32 µM
  TGI: 5.27 µM
OVCAR-4 ovarian
  GI50: 5.62 µM
  TGI: > 100 µM
T-47D breast
  GI50: 3.59 µM
  TGI: 15.4 µM
SF-268 CNS
  GI50: 13.2 µM
  TGI: 55 µM
OVCAR-8 ovarian
  GI50: 2.83 µM
  TGI: 8.57 µM
NCI/ADR-RES ovarian
  GI50: 5.76 µM
  TGI: > 100 µM
BT-549 breast
  GI50: 14 µM
  TGI: 29.2 µM
COLO 205 colon
  GI50: 1.87 µM
  TGI: 3.52 µM
TK-10 renal
  GI50: 20 µM
  TGI: 44.1 µM
ACHN renal
  GI50: 2.14 µM
  TGI: 4.45 µM
OVCAR-3 ovarian
  GI50: 10.3 µM
  TGI: > 100 µM
CAKI-1 renal
  GI50: 1.62 µM
  TGI: 3.12 µM
HCC-2998 colon
  GI50: 1.69 µM
  TGI: 3.2 µM
UO-31 renal
  GI50: 4.35 µM
  TGI: 17.2 µM
SN12C renal
  GI50: 6.07 µM
  TGI: 65.8 µM
CCRF-CEM leukemia
  GI50: 2.22 µM
  TGI: 5.93 µM
A549 NSCLC
  GI50: 81.6 µM
  TGI: > 100 µM
786-0 renal
  GI50: 1.68 µM
  TGI: 3.57 µM
MDA-MB-435
  GI50: 1.79 µM
  TGI: 3.36 µM
RPMI-8226 leukemia
  GI50: 2.19 µM
  TGI: 5.33 µM
IGROV1 ovarian
  GI50: 4.81 µM
  TGI: 61.2 µM
SK-MEL-5 melanoma
  GI50: 12.8 µM
  TGI: 29.4 µM
